Values of other authors, collected in US20130190499A1, “Azaisoquinolinone derivatives as NK3 antagonists” (H. Lundbeck A/S, priority 2010, published 2013).

Molecular target: T1, NK3 (Homo sapiens, UniProt P29371)
T1 sequence (P29371 1-465): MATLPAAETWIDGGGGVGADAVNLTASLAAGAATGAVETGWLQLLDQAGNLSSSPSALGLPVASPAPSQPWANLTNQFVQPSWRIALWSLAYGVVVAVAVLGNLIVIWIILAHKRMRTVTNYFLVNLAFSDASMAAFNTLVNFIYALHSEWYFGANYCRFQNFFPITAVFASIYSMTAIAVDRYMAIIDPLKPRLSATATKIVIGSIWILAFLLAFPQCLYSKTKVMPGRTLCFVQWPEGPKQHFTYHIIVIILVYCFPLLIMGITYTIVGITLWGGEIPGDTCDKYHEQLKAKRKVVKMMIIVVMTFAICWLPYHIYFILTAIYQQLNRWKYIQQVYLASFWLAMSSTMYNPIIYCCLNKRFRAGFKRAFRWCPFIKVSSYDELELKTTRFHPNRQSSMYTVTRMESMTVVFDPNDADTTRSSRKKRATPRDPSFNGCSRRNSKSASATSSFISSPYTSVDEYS

| SMILES | Effect in clinical trials, in particular on positive symptoms of psychosis (versus placebo, delusions, hallucinations and paranoia) | Effect in clinical trials on cognitive behaviour of schizophrenics (schizophrenics) |
| --- | --- | --- |
| CC(=O)N(C)C1(c2ccccc2)CCN(CCC[C@]2(c3ccc(Cl)c(Cl)c3)CCCN(C(=O)c3ccccc3)C2)CC1 [Osanetant] | superior to placebo |  |
| CC[C@H](NC(=O)c1c(O)c(-c2ccccc2)nc2ccccc12)c1ccccc1 [talnetant] |  | ameliorate the cognitive behaviour of schizophrenics |
